Results: publication PMC5748279, “Novel Antitubercular 6-Dialkylaminopyrimidine Carboxamides from Phenotypic Whole-Cell High Throughput Screening of a SoftFocus Library: Structure–Activity Relationship and Target Identification Studies” (Journal of Medicinal Chemistry, 2017)

How the values were obtained:
[1] = system: Mycobacterium tuberculosis (H37RvMa); test: microbe, parasite or virus in culture; format: cell-based; settings: for MIC99 7H9/ADC / fold more potent in 7H9/ADC compared to 1: 7H9/ADC medium; for MIC99 GAST/Fe / fold more potent in GAST/Fe compared to 1: GAST/Fe medium; for fold more potent in 7H9/ADC compared to 1 / fold more potent in GAST/Fe compared to 1: versus compound 1
physchem = format: physicochemical
Protocol: The kinetic solubility assay was performed using a miniaturised shake flask method. 10 mM stock […]
DMSO, and to spike (1:50) duplicate aqueous samples of FaSSIF (simulating fasting state biorelevant media, pH 6.5), with a final DMSO concentration of 2%. After shaking for 2 hours at 25 °C, the solutions were filtered and analysed by means of HPLC,DAD (Agilent 1200 Rapid Resolution HPLC with a diode array detector). Best fit calibration curves were constructed using the calibration standards, which were used to determine the aqueous samples’ solubility.13
4.2) Microsomal stability
The metabolic stability assay was performed in duplicate in a 96,well micro titre plate. The test compounds (0.1 µM) were incubated individually in mouse, rat and pooled human liver […]
the cofactor NADPH (1 mM). Reactions were quenched by adding 300 µL of ice cold acetonitrile containing internal standard (carbamazepine, 0.0236 µg/mL). Test compounds in the supernatant were analysed by means of LC,MS/MS (Agilent Rapid Resolution HPLC, AB SCIEX 4000 QTRAP MS) for the disappearance of parent compound. Metabolite searches were not conducted during the metabolic stability assay.14
4.3) Plasma protein binding (PPB) assay
The plasma protein binding assay was performed in a 96,well micro titre plate with pooled human plasma, spiked with test compound (5 µM). An aliquot was immediately removed and quenched using ice cold acetonitrile containing internal standard (carbamazepine, 0.0236 µg/mL), and placed in the freezer. This served as the total concentration sample. After pre,incubation (37 °C for 1 hour) duplicate aliquots of the spiked plasma were transferred to ultra,centrifugation tubes, […]

[2] = system: PiniB-LUX reporter (Mtb cell wall biosynthesis); format: cell-based; settings: luminescence over 7 days, INH control
[3] = system: PrecA-LUX reporter (genotoxic compounds); format: cell-based; settings: luminescence over 7 days, CIPRO control
[4] = format: in vitro ADME
Protocol: and ultracentrifuged for 4 hours (42000 rpm, 37 °C, Beckman Optima L,80XP). Analyte concentration of all compounds and sample types were determined by means of LC,MS/MS (Agilent Rapid Resolution HPLC, AB SCIEX 4000 QTRAP MS).
4.4) Lipophilicity (LogD7.4)
The lipophilicity assay was performed in triplicate using a shake,flask procedure. 10 mM stock solutions of each test compound were used to spike (100 µM) a 1:1 mixture of phosphate buffer (pH 7.4) and n,octanol. The solutions were shaken vigorously (1500 rpm) on an orbital shaker for 3 hours at room temperature. Thereafter the samples were centrifuged in order to fully separate the two immiscible fluids. The samples were analysed by HPLC,DAD (Agilent 1200 Rapid Resolution HPLC with a diode array detector) and the amount of compound in the buffer and n, octanol were used to determine the partition coefficient, LogD7.4.15
4.5) Parallel Artificial Membrane Permeability Assay (PAMPA):
The PAMPA assay was performed in triplicate in 96,well MultiScreen Filter plates (Millipore, 0.4 µM PCTE Membrane). Membrane filters were pre,coated with 5% hexadecane in hexane and allowed to dry prior to the assay. Membrane integrity marker, Lucifer yellow was added to the apical wells of the pre,coated MultiScreen plate donor/drug solutions containing test compound.
Phosphate buffer (pH7.4) was added to the 96,well acceptor plate. 10 mM test compound was used to spike (1 µM) the donor buffer at physiologically relevant pH's (pH 4, 6.5 and 8), the donor plate slotted into the acceptor plate and incubated (4 hours at room temperature) with gentle shaking (40,50 rpm). Following the incubation, sample from the acceptor wells and theoretical equilibrium wells were transferred to the analysis plate and matrix matched with blank donor buffer. Acetonitrile containing internal standard (carbamazepine, 0.0236 µg/mL) was added to all samples and they were analysed by LC,MS/MS (Agilent Rapid Resolution HPLC, AB SCIEX 4500 MS). The normalised (analyte/internal) peak areas were used to calculate the apparent permeability (Papp). Membrane integrity was assessed by calculating the Papp of Lucifer Yellow […]
chemosensitivity. […]. Thus only viable cells […]
formazan. Formazan crystals are dissolved in DMSO. The test samples were tested in triplicate on […]
experiment. […] Emetine was used […]
as the reference drug in all experiments. The initial concentration of emetine was 100 µg/mL, […]
lowest being 0.001 µg/mL. […] The […]
the cell viability (data not shown).
GraphPad Prism v.4 software. […]
expressing the full length hERG channel. Single cell ionic currents were measured in the […]

in vivo = settings: male, C57/BL6, mouse
[5] = Caseum binding using surrogate caseum
[6] = system: Mtb::gfp strain (H37RvMa::pMSP12GFP); format: cell-based; settings: supplementary csv; for MIC99 7H9/ADC (values marked c: GFP strain based assay): 7H9/ADC medium; for MIC99 GAST/Fe (values marked c: GFP strain based assay): GAST/Fe medium

6-((4-Cyanobenzyl)(methyl)amino)-N-phenylpyrimidine-4-carboxamide [Compound 16]
MIC99 7H9/ADC [1]: >50 µM
MIC99 7H9/ADC ([1]; supplementary csv): >50 æM
MIC99 GAST/Fe [1]: 20 µM
MIC99 GAST/Fe ([1]; supplementary csv): 20 æM
solubility kinetic at 2 h (physchem; pH 7.4): <5 µM
Solubility (physchem; supplementary csv): <5 æM

6-(Benzyloxy)-N-phenylpyrimidine-4-carboxamide [Compound 4]
MIC99 7H9/ADC [1]: >160 µM
MIC99 7H9/ADC ([1]; supplementary csv): >160 æM

CN(Cc1ccc(F)cc1)c1cc(C(=O)Nc2ccccc2)ncn1 [Compound 10, 6-((4-Fluorobenzyl)(methyl)amino)-N-phenylpyrimidine-4-carboxamide]
fold more potent in 7H9/ADC compared to 1 [1]: ≥ 4 fold
fold more potent in GAST/Fe compared to 1 [1]: ≥ 2 fold

CN(Cc1ccc(Cl)cc1)c1cc(C(=O)Nc2ccccc2)ncn1 [Compound 11, 6-((4-Chlorobenzyl)(methyl)amino)-N-phenylpyrimidine-4-carboxamide]
fold more potent in 7H9/ADC compared to 1 [1]: ≥ 4 fold
fold more potent in GAST/Fe compared to 1 [1]: ≥ 2 fold

CN(Cc1ccc(C(F)(F)F)cc1)c1cc(C(=O)Nc2ccccc2)ncn1 [Compound 12, 6-(Methyl(4-(trifluoromethyl)benzyl)amino)-N-phenylpyrimidine-4-carboxamide]
PiniB-LUX reporter response [2]: a weak, delayed response
PrecA-LUX reporter response [3]: delayed (Day 3 onwards) induction of luminescence
PAMPA log Papp [4]: –4.9
AUC(0-inf) at 24 h (in vivo; iv, 5 mg/kg): 20.4 µM·h
clearance at 24 h (in vivo; iv, 5 mg/kg): 11.3 mL/min/kg
half-life at 24 h (in vivo; iv, 5 mg/kg): 276 min
AUC(0-inf) at 24 h (in vivo; po, 20 mg/kg): 22.2 µM·h
half-life at 24 h (in vivo; po, 20 mg/kg): 522 min
caseum distribution unbound [5]: 0.1%

COc1ccc(NC(=O)c2cc(N(C)Cc3cccc(F)c3)ncn2)cc1 [Compound 13, 6-((3-Fluorobenzyl)(methyl)amino)-N-(4-methoxyphenyl)pyrimidine-4-carboxamide]
PiniB-LUX reporter response [2]: a weak, delayed response
PrecA-LUX reporter response [3]: delayed (Day 3 onwards) induction of luminescence

CN(Cc1ccc(S(C)(=O)=O)cc1)c1cc(C(=O)Nc2ccccc2)ncn1 [Compound 17, 6-(Methyl(4-(methylsulfonyl)benzyl)amino)-N-phenylpyrimidine-4-carboxamide]
MIC99 7H9/ADC (values marked c: GFP strain based assay) [6]: >125c æM
MIC99 GAST/Fe (values marked c: GFP strain based assay) [6]: >125c æM

CN(Cc1cccnc1)c1cc(C(=O)Nc2ccccc2)ncn1 [Compound 19, 6-(Methyl(pyridin-3-ylmethyl)amino)-N-phenylpyrimidine-4-carboxamide]
MIC99 7H9/ADC (values marked c: GFP strain based assay) [6]: 48c æM
MIC99 GAST/Fe (values marked c: GFP strain based assay) [6]: 37c æM
